Reference: US20060276537A1, “Use of ladostigil for the treatment of multiple sclerosis” (priority 2005, published 2006)

Tested on: chronic progressive EAE induced by pMOG35-55 in C57BL/6 mice
Assay: MOG-induced chronic progressive EAE in C57BL/6 mice, clinical scoring
Type: in vivo
Details: gavage once daily from day 0; for % Inhibition: vs control group mean score
Procedure: MOG (Myelin oligodendrocyte glycoprotein) is a member of the immunoglobulin superfamily expressed exclusively in CNS myelin. It is one of the most encephalitogenic proteins and is widely used to induce EAE in different rodent strains. In C57BL/6 mice, immunization with the MOG peptide pMOG35-55 in CFA induces chronic progressive EAE. Ladostigil was tested in this model in order to assess its ability to inhibit the disease.
EAE was induced by subcutaneous injection of encephalitogenic emulsion at a volume of 0.2 ml/mouse in the right flank. On the day of induction, pertussis toxin was injected intraperitoneally at a volume dose of 0.2 ml/mouse. The injection of the pertussis toxin was repeated after 48 hours. At the end of the experiment, 6-7 brains from control and the ladostigil groups were dissected and frozen at −70° C. for CHE (cholinesterase) determination and 6-7 brains were dissected and frozen for MAO (monoamine oxidase) determination. Before sacrifice, blood for ChE determination was taken on heparine, hemolysed 1/20 in 10 mM cold phosphate buffer pH=6.0 and stored at −70° C. until the assay.
90 female C57Bl/6 mice 8-10 weeks old obtained from Harlan animal breeding center were used in the study. Mice were allocated randomly into 6 groups:
Both compounds were administered by gavage once daily during the whole experiment (30 days) at a volume of 0.2 ml/mouse.
The mice were observed daily from the 10th day post-EAE induction and the EAE clinical signs were scored. The scores were recorded on observation cards according to the grades described in Table 5:
The number of sick animals (animals with a score of ≧1 at any point) in each group was summed.
The incidence of disease and the % activity were calculated as follows: [formula] [formula] [formula]
The maximal scores of all mice in each group were summed.
The mean maximal score and the % activity of the group were calculated as follows: [formula] [formula] [formula]
The individual scores (IMS) of each of the mice during the observation period were summed (score 6 will be counted forward).
The GMS of the group and its % activity were calculated as follows: [formula] [formula] [formula]
Their dates of onset were calculated as day of termination +1.

C#CCN[C@@H]1CCc2ccc(OC(=O)N(C)CC)cc21 [Ladostigil, R(+)-6-(N-methyl,N-ethyl-carbamoyloxy)-N′-propargyl-1-aminoindan]
Group Mean Score (ladostigil salt 10.2 mg/kg): 2.75 ± 1.3
Incidence (ladostigil salt 10.2 mg/kg): 15/15
Mean Maximal Score (ladostigil salt 10.2 mg/kg): 4.33 ± 1.1
Mean Onset (ladostigil salt 10.2 mg/kg): 12.0 ± 2.4 days
Mortality (ladostigil salt 10.2 mg/kg): 2/15
% Inhibition (ladostigil salt 10.2 mg/kg): 9.5%
Group Mean Score (ladostigil salt 25.5 mg/kg): 3.08 ± 1.4
Incidence (ladostigil salt 25.5 mg/kg): 15/15
Mean Disease Duration (ladostigil salt 25.5 mg/kg): 35.3 ± 8.8 days
Mean Maximal Score (ladostigil salt 25.5 mg/kg): 4.33 ± 1.0
Mean Onset (ladostigil salt 25.5 mg/kg): 11.6 ± 2.1 days
Mortality (ladostigil salt 25.5 mg/kg): 3/15
% Inhibition (ladostigil salt 25.5 mg/kg): −1.3%
Group Mean Score (ladostigil salt 51 mg/kg): 2.26 ± 1.1
Incidence (ladostigil salt 51 mg/kg): 15/15
Mean Disease Duration (ladostigil salt 51 mg/kg): 31.3 ± 13.2 days
Mean Maximal Score (ladostigil salt 51 mg/kg): 3.83 ± 1.1
Mean Onset (ladostigil salt 51 mg/kg): 11.4 ± 3.1 days
Mortality (ladostigil salt 51 mg/kg): 1/15
% Inhibition (ladostigil salt 51 mg/kg): 25.7%
Incidence (ladostigil salt 70.1 mg/kg): 15/15
Mean Maximal Score (ladostigil salt 70.1 mg/kg): 3.73 ± 1.0
Mean Onset (ladostigil salt 70.1 mg/kg): 11.6 ± 2.3 days
Mortality (ladostigil salt 70.1 mg/kg): 1/15
% Inhibition (ladostigil salt 70.1 mg/kg): 33.2%
